Source: publication PMC11763264, “Antibacterial and Antifungal Activities of Linear and Cyclic Peptides Containing Arginine, Tryptophan, and Diphenylalanine” (Antibiotics, 2025)
≈ marks a conversion by molar mass, not a printed value. Where “and” joins values, the source holds several entries; their conditions need not be identical. Identical values can stand only once. Non-standard residues stand in square brackets, D forms with d. Residues, ends and D or L forms follow the SMILES beside them. Dip = N[C@H](C(=O)O)C(c1ccccc1)c1ccccc1

How the values were obtained:
[1] = system: C. parapsilosis and A. fumigatus; format: cell-based; settings: span over the two fungi
Description: (§1) The antifungal activity of all ten synthesized linear and cyclic peptides was evaluated against C. albicans (ATCC 60193), C. parapsilosis (ATCC 22019), and A. fumigatus (AF-293). Fluconazole and amphotericin B were used as positive controls for this study. The MIC was determined at concentrations in wells with no visible fungal growth.
A. fumigatus (Af-293) was cultured on Sabouraud dextrose agar (SDA) (Lot #3431660, Oxoid) for 48–72 h at 35 °C to obtain fresh and mature colonies which reached the proper sporulation then used to prepare the inoculum. The colonies were covered with Phosphate-Buffered Saline (PBS) containing 0.025% Tween-20, scraped from the plate, and carefully collected into a sterile tube. The suspension was centrifuged at 3000 RPM for 5 min after the separation between conidia and hyphae. […]
Peptide concentrations of 50, 25, 12.5, 6.25, and 3.1 μg/mL were tested in triplicate. […] Fungal growth was visualized, and the minimum inhibitory concentration (MIC) was determined as the lowest peptide concentration, where no growth was observed. […]
Peptide concentrations of 50, 25, 12.5, 6.25, and 3.1 μg/mL were tested in triplicate and repeated twice. […] Fungal and microbial growth were visually observed in the control wells, and the minimum inhibitory concentration (MIC) was determined as the lowest concentration at which no growth was detected in the wells. […]

A. fumigatus (Af-293) = experiment: microbe, parasite or virus in culture; format: cell-based, Aspergillus fumigatus; settings: RPMI 1640 with 2% D-glucose, HEPES, 10^6 cells/mL, 24 and 48 h at 35 °C, no visible growth; triplicates, repeated twice
Description: as §1
A. fumigatus (Af-293) was cultured on Sabouraud dextrose agar (SDA) (Lot #3431660, Oxoid) for 48–72 h at 35 °C to obtain fresh and mature colonies which reached the proper sporulation then used to prepare the inoculum. The colonies were covered with Phosphate-Buffered Saline (PBS) containing 0.025% Tween-20, scraped from the plate, and carefully collected into a sterile tube. The suspension was centrifuged at 3000 RPM for 5 min after the separation between conidia and hyphae. The supernatant was discarded, and the pellet was resuspended in 5 mL of PBS.
Peptide concentrations of 50, 25, 12.5, 6.25, and 3.1 μg/mL were tested in triplicate. Each well of a 96-well plate was inoculated with the prepared inoculum suspension, which was diluted with RPMI 1640 medium containing L-glutamine, supplemented with 2% D-glucose, and the pH adjusted using HEPES buffer. The plates were incubated for 50 min at 35 °C to achieve a final cell concentration of 10^6 cells/mL. The control wells contained the same inoculum without any compound. The plates were then incubated for 24 and 48 h at 35 °C. Fungal growth was visualized, and the minimum inhibitory concentration (MIC) was determined as the lowest peptide concentration, where no growth was observed.

## N=C(N)NCCC[C@@H]1NC(=O)[C@H](C(c2ccccc2)c2ccccc2)NC(=O)[C@H](CCCNC(=N)N)NC(=O)[C@H](C(c2ccccc2)c2ccccc2)NC(=O)[C@H](CCCNC(=N)N)NC(=O)[C@H](C(c2ccccc2)c2ccccc2)NC(=O)[C@H](CCCNC(=N)N)NC(=O)[C@H](C(c2ccccc2)c2ccccc2)NC(=O)[C@H](CCCNC(=N)N)NC(=O)[C@H](C(c2ccccc2)c2ccccc2)NC1=O [[DipR]5] (cyclo([Dip]R[Dip]R[Dip]R[Dip]R[Dip]R))
[1]
  MIC values against C. parapsilosis and A. fumigatus: 1.6–6.6 µM and 3.0–12.5 µg/mL
A. fumigatus (Af-293)
  MIC: 1.6 µM (≈ 3.04 µg/mL)
